Tests used:
[1] = test system: MM.1S; assay: Tumor cell viability, CCK-8 assay, MM.1S; assay type: cell-based; details: MM.1S (human multiple myeloma); compound treatment 1uM; 5 days
Experimental: (§1) To examine whether the compounds having CRBN-binding activity according to the present invention exert tumor cell apoptosis effects, the assay was conducted using various human cancer cell lines, including human multiple myeloma cell lines (MM.1S and MM.1R-LR), a human breast cancer cell line (MDA-MB-231), a human lung cancer cell line (A549), a human rhabdomyosarcoma cell line (RD), and a human lymphoma cell line (Jeko-1).
(§2) The MM.1S, MM.1R-LR, MDA-MB-231, A549, RD, and Jeko-1 cell lines were obtained from the American Type Culture Collection (ATCC, Manassas, VA, USA) and cultured in RPMI 1640 medium (Corning, MD, USA) or DMEM (Corning, MD, USA) supplemented with 10% fetal bovine serum (FBS) (Corning, MD, USA), 100 U/mL penicillin (Corning, MD, USA), and 100 µg/mL streptomycin (Corning, MD, USA) at 37°C in a 5% CO2 incubator for 24 hours. The cells were seeded at a density of 1 × 10^4 cells/well in 96-well plates and incubated for 24 hours. After incubation, the test compounds dissolved in dimethyl sulfoxide (DMSO, CAS No.: 67-68-5) were serially diluted to a final concentration of 10 µM and applied to the cells. Following an additional incubation for 2 to 5 days, the analysis was performed using a CCK-8 assay kit (Dojindo, Japan) according to the manufacturer's instructions.

[2] = test system: RD; assay: Tumor cell viability, CCK-8 assay, RD; assay type: cell-based; details: RD (human rhabdomyosarcoma); compound treatment 1uM; 3 days
Experimental: as §1, §2

[3] = test system: Jeko-1; assay: Tumor cell viability, CCK-8 assay, Jeko-1; assay type: cell-based; details: Jeko-1 (human lymphoma); compound treatment 1uM; 3 days
Experimental: as §1, §2

[4] = test system: MDA-MB-231; assay: Tumor cell viability, CCK-8 assay, MDA-MB-231; assay type: cell-based; details: MDA-MB-231 (human breast cancer); compound treatment 1uM; 2 days
Experimental: as §1, §2

[5] = target: cereblon (CRBN) (Homo sapiens, UniProt Q96SW2); assay: In vitro CRBN binding assay (AlphaScreen, competitive inhibition of the PROTAC assay); details: Table 1; AlphaScreen, PROTAC Optimization Kit for BET Bromodomain-Cereblon Binding; read-out: Alpha IC50
[6] = test system: A549; assay: Tumor cell viability, CCK-8 assay, A549; assay type: cell-based; details: A549 (human lung cancer); compound treatment 1uM; 2 days
Experimental: as §1, §2

[7] = test system: MM.1R-LR; assay: Tumor cell viability, CCK-8 assay, MM.1R-LR; assay type: cell-based; details: MM.1R-LR (drug-resistant human multiple myeloma); compound treatment 1uM; 5 days
Experimental: as §1, §2

SMILES	Cell viability (% of control) [1]	Cell viability (% of control) [2]	Cell viability (% of control) [3]	Cell viability (% of control) [4]	IC50 [5]	Cell viability (% of control) [6]	Cell viability (% of control) [7]
CCCCCCCCc1ccc(C(=O)Nc2cccc(S(=O)(=O)Nc3cccc(C4CCC(=O)NC4=O)c3)c2)cc1 (stereo not drawn) [AEV40264, N-(3-(N-(3-(2,6-dioxopiperidin-3-yl)phenyl)sulfamoyl)phenyl)-4-octylbenzamide]	13.3 % of control	67.9 % of control	5.8 % of control	46.3 % of control	0.32 µM	61.8 % of control	79.8 % of control
O=C1CCC(c2cccc(NS(=O)(=O)c3cccc(NC(=O)c4ccc(CCCl)cc4)c3)c2)C(=O)N1 (stereo not drawn) [AEV41003, 4-(2-chloroethyl)-N-(3-(N-(3-(2,6-dioxopiperidin-3-yl)phenyl)sulfamoyl)phenyl)benzamide]	92.1 % of control	–	–	97.0 % of control	0.77 µM	104.0 % of control	79.9 % of control
O=C1CCC(c2cccc(NS(=O)(=O)c3cccc(NC(=O)c4ccc(Cl)cc4)c3)c2)C(=O)N1 (stereo not drawn) [AEV41 001, 4-chloro-N-(3-(N-(3-(2,6-dioxopiperidin-3-yl)phenyl)sulfamoyl)phenyl)benzamide]	88.3 % of control	–	–	–	1.23 µM	–	78.4 % of control
CCCc1ccc(C(=O)Nc2cccc(S(=O)(=O)Nc3cccc(C4CCC(=O)NC4=O)c3)c2)cc1 (stereo not drawn) [AEV41011, N-(3-(N-(3-(2,6-dioxopiperidin-3-yl)phenyl)sulfamoyl)phenyl)-4-propylbenzamide]	56.9 % of control	–	–	96.7 % of control	0.7 µM	98.9 % of control	66.1 % of control
CCc1ccc(C(=O)Nc2cccc(S(=O)(=O)Nc3cccc(C4CCC(=O)NC4=O)c3)c2)cc1 (stereo not drawn) [AEV41010, N-(3-(N-(3-(2,6-dioxopiperidin-3-yl)phenyl)sulfamoyl)phenyl)-4-ethylbenzamide]	88.4 % of control	–	–	95.7 % of control	0.42 µM	96.7 % of control	66.1 % of control
Cc1ccc(C(=O)Nc2cccc(S(=O)(=O)Nc3cccc(C4CCC(=O)NC4=O)c3)c2)cc1 (stereo not drawn) [AEV41009, N-(3-(N-(3-(2,6-dioxopiperidin-3-yl)phenyl)sulfamoyl)phenyl)-4-methylbenzamide]	92.9 % of control	–	–	–	0.54 µM	–	81.3 % of control
CCCCCCCc1ccc(C(=O)Nc2cccc(S(=O)(=O)Nc3cccc(C4CCC(=O)NC4=O)c3)c2)cc1 (stereo not drawn) [AEV40204, N-(3-(N-(3-(2,6-dioxopiperidin-3-yl)phenyl)sulfamoyl)phenyl)-4-heptylbenzamide]	3.3 % of control	50.8 % of control	11.6 % of control	40.4 % of control	0.44 µM	33.6 % of control	49.4 % of control
O=C1CCC(c2cccc(NS(=O)(=O)c3cccc(NC(=O)c4ccc(CCCCCl)cc4)c3)c2)C(=O)N1 (stereo not drawn) [AEV41005, 4-(4-chlorobutyl)-N-(3-(N-(3-(2,6-dioxopiperidin-3-yl)phenyl)sulfamoyl)phenyl)benzamide]	10.7 % of control	28.7 % of control	4.1 % of control	42.2 % of control	1.2 µM	36.8 % of control	58.2 % of control
CCCCCc1ccc(C(=O)Nc2cccc(S(=O)(=O)Nc3cccc(C4CCC(=O)NC4=O)c3)c2)cc1 (stereo not drawn) [AEV41013, N-(3-(N-(3-(2,6-dioxopiperidin-3-yl)phenyl)sulfamoyl)phenyl)-4-pentylbenzamide]	15.3 % of control	30.0 % of control	11.8 % of control	38.5 % of control	0.36 µM	25.8 % of control	55.2 % of control
CCCCc1ccc(C(=O)Nc2cccc(S(=O)(=O)Nc3cccc(C4CCC(=O)NC4=O)c3)c2)cc1 (stereo not drawn) [AEV41012, 4-butyl-N-(3-(N-(3-(2,6-dioxopiperidin-3-yl)phenyl)sulfamoyl)phenyl)benzamide]	7.4 % of control	79.7 % of control	37.7 % of control	78.7 % of control	0.94 µM	94.0 % of control	56.7 % of control
O=C1CCC(c2cccc(NS(=O)(=O)c3cccc(NC(=O)c4ccc(CCl)cc4)c3)c2)C(=O)N1 (stereo not drawn) [AEV41002, 4-(chloromethyl)-N-(3-(N-(3-(2,6-dioxopiperidin-3-yl)phenyl)sulfamoyl)phenyl)benzamide]	97.8 % of control	–	–	–	0.17 µM	–	90.2 % of control
O=C1CCC(c2cccc(NS(=O)(=O)c3cccc(NC(=O)c4ccc(CCCCl)cc4)c3)c2)C(=O)N1 (stereo not drawn) [AEV41004, 4-(3-chloropropyl)-N-(3-(N-(3-(2,6-dioxopiperidin-3-yl)phenyl)sulfamoyl)phenyl)benzamide]	10.5 % of control	78.6 % of control	–	83.5 % of control	1.57 µM	101.9 % of control	63.8 % of control
O=C1CCC(c2cccc(NC(=O)c3ccc4ccccc4n3)c2)C(=O)N1 (stereo not drawn) [AEV40187]	–	–	–	–	0.83 µM	–	–
O=C1CCC(c2ccc3ncoc3c2)C(=O)N1 (stereo not drawn) [AEV40203]	–	–	–	–	1.8 µM	–	–
CC(C)(C)OC(=O)NCc1cccc(Nc2cccc(C3CCC(=O)NC3=O)c2)c1 (stereo not drawn) [AEV40186]	–	–	–	–	2.63 µM	–	–
O=C1CCC(c2cccc(NCc3ccc(F)cc3O)c2)C(=O)N1 (stereo not drawn) [AEV40097]	–	–	–	–	0.99 µM	–	–
O=C1CCC(c2cccc(NC(=O)c3ccc(F)cc3)c2)C(=O)N1 (stereo not drawn) [AEV40140]	–	–	–	–	1.83 µM	–	–
COCCN1Cc2cc(C3CCC(=O)NC3=O)ccc2C1=O (stereo not drawn) [AEV40042]	–	–	–	–	5.4 µM	–	–
O=C1CCC(c2cccc(NCc3cccc(C(F)F)c3)c2)C(=O)N1 (stereo not drawn) [AEV40105]	–	–	–	–	1.42 µM	–	–
O=C1CCC(c2ccc3c(c2)OCCN(c2cccc(NC(=O)C4(C(=O)Nc5ccc(F)cc5)CC4)c2)C3=O)C(=O)N1 (stereo not drawn) [AEV40215]	–	–	–	–	2.16 µM	–	–
O=C1CCC(c2cccc(NS(=O)(=O)c3cccc([N+](=O)[O-])c3)c2)C(=O)N1 (stereo not drawn) [AEV40056]	–	–	–	–	0.91 µM	–	–
O=C1CCC(c2ccc3c(c2)OCCN(c2cccc(NC(=O)C4CCOCC4)c2)C3=O)C(=O)N1 (stereo not drawn) [AEV40216]	–	–	–	–	2.51 µM	–	–
